Reference: patent US20240277722A1, “CANCER THERAPY USING A COMBINATION OF CDK7 INHIBITOR WITH AN ANTI-CANCER AGENT” (Aurigene Oncology Limited, priority 2021, published 2024)
Where “and” joins values, the source holds several entries; their conditions need not be identical. Equal values may be shown once.

Key:
Z-138 cells = test: Z-138 cell proliferation, CTG reagent, 3-day treatment, single agents and combination (CompuSyn synergy analysis); type: cell-based; conditions: for % Inhibition in proliferation: 3 days
Protocol: Z-138 cells were treated with serial dilutions of Compound-44A (CDK7 inhibitor), serial dilutions of venetoclax individually and in combination for 3 days. The effect of 3-day compound treatment on cell proliferation was measured using CTG reagent. Percentage inhibition of cell proliferation in individual (Compound-44A, venetoclax) and combination treatments (Compound-44A+venetoclax) were analyzed using CompuSyn software to assess synergy.

MCF-7 cells = test: MCF-7 cell proliferation, CTG reagent, 6-day treatment, single agents and combination (CompuSyn synergy analysis); type: cell-based
Protocol: The effect of 6-day compound treatment on cell proliferation was measured using CTG reagent.

`CC1(C)CCC(CN2CCN(c3ccc(C(=O)NS(=O)(=O)c4ccc(NCC5CCOCC5)c([N+](=O)[O-])c4)c(Oc4cnc5[nH]ccc5c4)c3)CC2)=C(c2ccc(Cl)cc2)C1` [Venetoclax, venetoclax] was tested. Which inhibition at 0.004572 µM (Z-138 cells; Homo sapiens, Z-138, Venetoclax 0.004572 μM, Day-3) did it give?
The inhibition at 0.004572 µM was 7.4%.

What about the inhibition at 0.013717 µM (Z-138 cells; Homo sapiens, Z-138, Venetoclax 0.013717 μM, Day-3) of the same molecule?
The inhibition at 0.013717 µM was 18.9%.

What about the inhibition at 0.041152 µM (Z-138 cells; Homo sapiens, Z-138, Venetoclax 0.041152 μM, Day-3) of the same molecule?
Its inhibition at 0.041152 µM is 35.6%.

And the inhibition at 0.123457 µM (Z-138 cells; Homo sapiens, Z-138, Venetoclax 0.123457 μM, Day-3)?
The inhibition at 0.123457 µM was 49.8%.

What about the inhibition at 0.37037 µM (Z-138 cells; Homo sapiens, Z-138, Venetoclax 0.370370 μM, Day-3) of the same molecule?
Its inhibition at 0.37037 µM is 63.8%.

What about the inhibition at 1.11111 µM (Z-138 cells; Homo sapiens, Z-138, Venetoclax 1.111111 μM, Day-3) of the same molecule?
Its inhibition at 1.11111 µM is 75.6%.

What about the inhibition at 3.33333 µM (Z-138 cells; Homo sapiens, Z-138, Venetoclax 3.333333 μM, Day-3) of the same molecule?
Its inhibition at 3.33333 µM is 90.5%.

What about the inhibition at 10 µM (Z-138 cells; Homo sapiens, Z-138, Venetoclax 10.000000 μM, Day-3) of the same molecule?
The inhibition at 10 µM was 99.7%.

And the inhibition at 30 µM (Z-138 cells; Homo sapiens, Z-138, Venetoclax 30.000000 μM, Day-3)?
Its inhibition at 30 µM is 99.9%.

What about the “% Inhibition in proliferation” value (Z-138 cells; Venetoclax 0.000006 μM + Compound-44A 0.0 μM) of the same molecule?
Its value is −3.0%.

And the “% Inhibition of proliferation” value (Z-138 cells; Venetoclax 0.000006 μM, Day-3)?
Its value is 1.6% and −2.7% and −8.2%.

What about the “% Inhibition in proliferation” value (Z-138 cells; Venetoclax 0.000019 μM + Compound-44A 0.0 μM) of the same molecule?
The value was −10.0%.

What about the “% Inhibition in proliferation” value (Z-138 cells; Venetoclax 0.000169 μM + Compound-44A 0.0 μM) of the same molecule?
Its value is −9.0%.

What about the “% Inhibition in proliferation” value (Z-138 cells; Venetoclax 0.000508 μM + Compound-44A 0.0 μM) of the same molecule?
Its value is −10.0%.

And the “% Inhibition in proliferation” value (Z-138 cells; Venetoclax 0.001524 μM + Compound-44A 0.0 μM)?
The value was −0.2%.

And the “% Inhibition in proliferation” value (Z-138 cells; Venetoclax 0.004572 μM + Compound-44A 0.0 μM)?
Its value is 8.0%.

And the “% Inhibition of proliferation” value (Z-138 cells; Venetoclax 0.004572 μM, Day-3)?
Its value is 6.3% and 11.2%.

And the “% Inhibition in proliferation” value (Z-138 cells; Venetoclax 0.013717 μM + Compound-44A 0.0 μM)?
Its value is 19.0%.

And the “% Inhibition of proliferation” value (Z-138 cells; Venetoclax 0.013717 μM, Day-3)?
The value was 19.7%.

What about the “% Inhibition in proliferation” value (Z-138 cells; Venetoclax 0.041152 μM + Compound-44A 0.0 μM) of the same molecule?
The value was 33.0%.

And the “% Inhibition of proliferation” value (Z-138 cells; Venetoclax 0.041152 μM, Day-3)?
The value was 29.6% and 34.7%.

What about the “% Inhibition in proliferation” value (Z-138 cells; Venetoclax 0.123457 μM + Compound-44A 0.0 μM) of the same molecule?
Its value is 53.0%.

And the “% Inhibition of proliferation” value (Z-138 cells; Venetoclax 0.123457 μM, Day-3)?
The value was 53.8% and 55.1%.

What about the “% Inhibition in proliferation” value (Z-138 cells; Venetoclax 0.370370 μM + Compound-44A 0.0 μM) of the same molecule?
Its value is 65.0%.

What about the “% Inhibition of proliferation” value (Z-138 cells; Venetoclax 0.370370 μM, Day-3) of the same molecule?
The value was 65.2% and 66.6%.

What about the “% Inhibition in proliferation” value (Z-138 cells; Venetoclax 1.111111 μM + Compound-44A 0.0 μM) of the same molecule?
The value was 76.0%.

And the “% Inhibition of proliferation” value (Z-138 cells; Venetoclax 1.111111 μM, Day-3)?
Its value is 73.5% and 78.1%.

What about the “% Inhibition in proliferation” value (Z-138 cells; Venetoclax 3.333333 μM + Compound-44A 0.0 μM) of the same molecule?
Its value is 92.0%.

What about the “% Inhibition of proliferation” value (Z-138 cells; Venetoclax 3.333333 μM, Day-3) of the same molecule?
Its value is 91.6% and 92.6%.

What about the “% Inhibition in proliferation” value (Z-138 cells; Venetoclax 10.0 μM + Compound-44A 0.0 μM) of the same molecule?
The value was 100.0%.

What about the “% Inhibition of proliferation” value (Z-138 cells; Venetoclax 10.000000 μM, Day-3) of the same molecule?
Its value is 99.8% and 100%.

And the “% Inhibition in proliferation” value (Z-138 cells; Venetoclax 30.0 μM + Compound-44A 0.0 μM)?
Its value is 100.0%.

What about the “% Inhibition of proliferation” value (Z-138 cells; Venetoclax 30.000000 μM, Day-3) of the same molecule?
Its value is 100.1%.

What about the “% Inhibition in proliferation” value (Z-138 cells; Venetoclax […] + Compound-44A 0.0 μM) of the same molecule?
The value was −10.0%.

How did the “% Inhibition in proliferation” value (MCF-7 cells; Fulvestrant 0.000000164 nM + Compound-44A 0.00 nM, 6 days) turn out when `C[C@]12CC[C@@H]3c4ccc(O)cc4C[C@@H](CCCCCCCCC[S+]([O-])CCCC(F)(F)C(F)(F)F)[C@H]3[C@@H]1CC[C@@H]2O` (stereo partly shown) [Fulvestrant, fulvestrant] was run?
Its value is 2.8%.

And the “% Inhibition of proliferation” value (MCF-7 cells; Fulvestrant 0.000000164 nM, Day-6)?
Its value is 0.6% and 2.7% and 4.9%.

And the “% Inhibition in proliferation” value (MCF-7 cells; Fulvestrant 0.000000819 nM + Compound-44A 0.00 nM, 6 days)?
Its value is 10.4%.

And the “% Inhibition in proliferation” value (MCF-7 cells; Fulvestrant 0.000004096 nM + Compound-44A 0.00 nM, 6 days)?
The value was 5.0%.

And the “% Inhibition of proliferation” value (MCF-7 cells; Fulvestrant 0.000004096 nM, Day-6)?
Its value is 6.6% and 7.7% and 0.7%.

What about the “% Inhibition in proliferation” value (MCF-7 cells; Fulvestrant 0.00002048 nM + Compound-44A 0.00 nM, 6 days) of the same molecule?
Its value is 7.1%.

What about the “% Inhibition of proliferation” value (MCF-7 cells; Fulvestrant 0.00002048 nM, Day-6) of the same molecule?
The value was 7.2% and 5.9%.

And the “% Inhibition in proliferation” value (MCF-7 cells; Fulvestrant 0.0001024 nM + Compound-44A 0.00 nM, 6 days)?
Its value is 0.9%.

And the “% Inhibition of proliferation” value (MCF-7 cells; Fulvestrant 0.0001024 nM, Day-6)?
Its value is 4.2% and −1.2% and −0.1%.

And the “% Inhibition in proliferation” value (MCF-7 cells; Fulvestrant 0.000512 nM + Compound-44A 0.00 nM, 6 days)?
Its value is 7.5%.

And the “% Inhibition of proliferation” value (MCF-7 cells; Fulvestrant 0.000512 nM, Day-6)?
The value was 3.2% and 7.4% and 11.8%.

And the “% Inhibition in proliferation” value (MCF-7 cells; Fulvestrant 0.00256 nM + Compound-44A 0.00 nM, 6 days)?
Its value is 3.4%.

And the “% Inhibition in proliferation” value (MCF-7 cells; Fulvestrant 0.0128 nM + Compound-44A 0.00 nM, 6 days)?
Its value is 1.5%.

And the “% Inhibition in proliferation” value (MCF-7 cells; Fulvestrant 0.064 nM + Compound-44A 0.00 nM, 6 days)?
Its value is −1.2%.

What about the “% Inhibition of proliferation” value (MCF-7 cells; Fulvestrant 0.064 nM, Day-6) of the same molecule?
The value was 3.9% and −2.5% and −5%.

And the “% Inhibition in proliferation” value (MCF-7 cells; Fulvestrant 0.32 nM + Compound-44A 0.00 nM, 6 days)?
The value was 24.2%.

And the “% Inhibition of proliferation” value (MCF-7 cells; Fulvestrant 0.32 nM, Day-6)?
Its value is 27.7% and 23.3%.

What about the “% Inhibition in proliferation” value (MCF-7 cells; Fulvestrant 1.6 nM + Compound-44A 0.00 nM, 6 days) of the same molecule?
The value was 79.8%.

And the “% Inhibition of proliferation” value (MCF-7 cells; Fulvestrant 1.6 nM, Day-6)?
Its value is 78.6% and 80%.

And the “% Inhibition in proliferation” value (MCF-7 cells; Fulvestrant 8 nM + Compound-44A 0.00 nM, 6 days)?
Its value is 87.5%.

And the “% Inhibition of proliferation” value (MCF-7 cells; Fulvestrant 8 nM, Day-6)?
The value was 88.4% and 86.3%.

And the “% Inhibition in proliferation” value (MCF-7 cells; Fulvestrant 40 nM + Compound-44A 0.00 nM, 6 days)?
Its value is 86.9%.

And the “% Inhibition of proliferation” value (MCF-7 cells; Fulvestrant 40 nM, Day-6)?
The value was 86%.

And the “% Inhibition in proliferation” value (MCF-7 cells; Fulvestrant 1000 nM + Compound-44A 0.00 nM, 6 days)?
The value was 88.7%.

What about the “% Inhibition of proliferation” value (MCF-7 cells; Fulvestrant 1000 nM, Day-6) of the same molecule?
Its value is 90.2%.

What about the “% Inhibition in proliferation” value (MCF-7 cells; Fulvestrant 3000 nM + Compound-44A 0.00 nM, 6 days) of the same molecule?
Its value is 90.0%.

And the “% Inhibition of proliferation” value (MCF-7 cells; Fulvestrant 3000 nM, Day-6)?
The value was 90.6% and 89.5%.

And the “% Inhibition in proliferation” value (MCF-7 cells; Fulvestrant 10000 nM + Compound-44A 0.00 nM, 6 days)?
The value was 95.0%.

And the “% Inhibition of proliferation” value (MCF-7 cells; Fulvestrant 10000 nM, Day-6)?
Its value is 95.7% and 95.1%.

And the inhibition at 20.48 fM (MCF-7 cells; Homo sapiens, MCF7, Fulvestrant 0.00002048 nM, Day-6)?
Its inhibition at 20.48 fM is 8.1%.

And the inhibition at 0.00032 µM (MCF-7 cells; Homo sapiens, MCF7, Fulvestrant 0.32 nM, Day-6)?
The inhibition at 0.00032 µM was 21.6%.

What about the inhibition at 0.0016 µM (MCF-7 cells; Homo sapiens, MCF7, Fulvestrant 1.6 nM, Day-6) of the same molecule?
Its inhibition at 0.0016 µM is 80.9%.

And the inhibition at 0.008 µM (MCF-7 cells; Homo sapiens, MCF7, Fulvestrant 8 nM, Day-6)?
Its inhibition at 0.008 µM is 87.8%.

What about the inhibition at 0.04 µM (MCF-7 cells; Homo sapiens, MCF7, Fulvestrant 40 nM, Day-6) of the same molecule?
Its inhibition at 0.04 µM is 85.9%.

And the inhibition at 0.2 µM (MCF-7 cells; Homo sapiens, MCF7, Fulvestrant 200 nM, Day-6)?
The inhibition at 0.2 µM was 85.8%.

What about the inhibition at 1 µM (MCF-7 cells; Homo sapiens, MCF7, Fulvestrant 1000 nM, Day-6) of the same molecule?
Its inhibition at 1 µM is 88.8%.

And the inhibition at 3 µM (MCF-7 cells; Homo sapiens, MCF7, Fulvestrant 3000 nM, Day-6)?
The inhibition at 3 µM was 89.9%.

And the inhibition at 10 µM (MCF-7 cells; Homo sapiens, MCF7, Fulvestrant 10000 nM, Day-6)?
Its inhibition at 10 µM is 94.3%.

What about the “inhibition of proliferation in MCF-7 cells” value (MCF-7 cells; single agent, serial dilutions, 6 days) of the same molecule?
Its value is “dose dependent inhibition of proliferation”.
